Holding throughout (test): NCI anticancer screen, dose series, 48 h
The subject of assay [1] is 786-0 renal.
The test system of assay [2] is EKVX NSCLC.
Assay [3] concerns HT29 colon.
For assay [4], the system named is M14 melanoma.
Assay [5] concerns MALME-3M melanoma.
In assay [6] the test system is NCI-H23 lung.
The test system of assay [7] is SF-268 CNS.
The subject of assay [8] is SN12C renal.
For assay [9], the system named is HS 578T breast.
The subject of assay [10] is T-47D breast.

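Briefly, cells in 96-well plates were exposed to five compound concentrations for 48 h, and endpoints were estimated by linear interpolation. Abbreviation: GI50, concentration required for 50% inhibition of growth. TGI is the concentration that stops growth completely.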

In the case of `COC1OC(COCc2ccc(Cl)cc2)C(OCc2ccc(Cl)cc2)C1O` (stereo unspecified), the TGI is 30.8 µM in assay [1]; 46.3 µM in [2]; 33.2 µM in assay [3]; 31 µM in [4]; 30.3 µM in assay [5]; 31.9 µM in assay [6]. The TGI was found to be 35.5 µM in assay [7] and 31.8 µM in assay [8].
On to `COC(=O)C1C(=O)O[C@@H](c2ccc(OC)cc2)C1C(=O)OC` (stereo partly specified), for which the TGI in assay [1], in [2], in assay [3], in [4], in assay [5] and in [6] was > 100 µM in each case. The TGI in assay [7] and in assay [8] was > 100 µM in each case.
On to `c1ccc2c(c1)nnn1c3cnccc3nc21`, for which the TGI is > 100 µM in [1]; > 100 µM in assay [2]; 80.3 µM in assay [3]; > 100 µM in assay [4]; > 100 µM in assay [5]; 69.4 µM in assay [6]. In addition, the TGI in [7] and in assay [8] was > 100 µM in each case.
With `CCCCN(CCCC)c1cc(C(=O)CCCCCN)c2ccccc2n1`, the GI50 in assay [1] is 1.83 µM; in assay [2], 4.99 µM; in assay [9] it was 2.13 µM; in [3], 2 µM; in assay [4] it was 1.83 µM; in [5], 2.16 µM. In addition, the GI50 in assay [6] is 1.89 µM; in assay [7], 3.38 µM; in assay [8] it was 1.63 µM. Further, the TGI in assay [1] was 3.27 µM; in assay [2], 23.1 µM; in [9], 6.05 µM; in [3], 3.57 µM; in assay [4], 3.29 µM; in [5], 4.16 µM. The TGI was found to be 3.8 µM in assay [6], 12.7 µM in assay [7] and 3.07 µM in assay [8].
On to `O=C(O)c1ccc([N+](=O)[O-])c(P(=O)(O)O)c1`, for which the TGI in assay [1], in [2], in assay [3], in [4], in assay [6] and in assay [8] was > 100 µM each time. For the same molecule, in assay [10], the TGI is > 100 µM.
`CCCCCCCCC(=O)CCCCCCCCC(=O)O`: the TGI in assay [1] was 64.3 µM; in [2], 93.3 µM; in assay [3], 49.7 µM; in assay [4] it was 82.8 µM; in assay [5], > 100 µM; in assay [6], 85.8 µM. Also, the TGI was > 100 µM in [7] and 76.2 µM in assay [8].
As to `S=C1CNC(=S)CN1`, the TGI in [1], in [3], in [4], in assay [5], in assay [7] and in assay [8] was > 100 µM in each case.
For the molecule `Cc1ccc(NC(=O)C2C(=O)C(=O)N(c3ccc(C)cc3)C2=O)cc1` (stereo unspecified), the TGI in [1], in assay [2], in [3], in [4], in assay [5] and in [6] was > 100 µM each time. In addition, the TGI in assay [7] and in assay [8] was > 100 µM each time.
As to `CCC[CH2][Sn]([CH2]CCC)([O]C(=O)c1cc(OC)c(OC)c(OC)c1)[O]C(=O)c1cc(OC)c(OC)c(OC)c1`, the GI50 in assay [1] is 1.29 µM; in assay [2], 1.95 µM; in assay [3], 1.69 µM; in assay [4] it was 1.42 µM; in assay [5] it was 0.946 µM; in [6] it was 0.437 µM. Besides, the GI50 in [7] is 1.21 µM; in [8], 1.51 µM. For the same molecule, the TGI in assay [1] was found to be 2.57 µM; in assay [2], 4.69 µM; in assay [3] it was 3.33 µM; in assay [4], 2.83 µM; in assay [5], 2.17 µM; in [6] it was 1.56 µM. Moreover, the results for the TGI in [7] and in assay [8] were 2.48 µM and 3.68 µM, respectively.
As to `Cc1cc(=O)[nH]c(CNC(=O)c2cccc3ccccc23)n1`, the TGI in assay [1], in assay [2], in [3], in assay [4], in assay [5] and in assay [6] was > 100 µM in each case. In addition, the TGI in [7] and in [8] was > 100 µM throughout.
Consider `COC(=O)C(=C\Sc1ccccc1)/C=C/C(=O)OC(C)(C)C`, for which the TGI in [1] was 10.9 µM; in assay [2], 24.9 µM; in assay [3] it was 36.1 µM; in assay [4], 21.2 µM; in [5] it was 30.7 µM; in assay [6] it was 33.1 µM. For the same molecule, the TGI in assay [7] was 31.8 µM; in [8] it was > 29 µM.
On to `NC1=NN(c2ccccc2)C(=O)C1C(=O)C(=O)NC1C2CC3CC(C2)CC1C3` (stereo unspecified), for which the TGI in assay [1], in [2], in assay [3], in assay [4], in [5] and in assay [6] was > 100 µM in each case. Moreover, the TGI in [7] and in [8] was > 100 µM each time.
Consider `COC(=O)C1C2CC3C(OC(=O)C31)C2I` (stereo unspecified), for which the TGI in assay [1], in assay [2], in assay [3], in [4], in assay [5] and in assay [6] was > 100 µM each time. The TGI in [7] and in assay [8] was > 100 µM each time.
Consider `C=CCOC1=C2CC[C@H](O)[C@@]2(C)CCC1=O`, for which the TGI in [1], in [2], in [3], in assay [4], in [5] and in assay [7] was > 100 µM in each case. The TGI in [8] was > 100 µM.
